Laboratory results taken from US11850325B2, “Injectable, bioadhesive cryogel scaffolds for biomedical uses” (Northeastern University, priority 2019, dated 2023).

Conditions: mouse
Method: All animal experiments were reviewed and approved by Institutional Animal Care and Use Committee (ICAUC; protocol 15-1248R) at Northeastern University (Boston, MA, USA). […] Anesthesia was achieved by isoflurane (2.5%) inhalation, followed by SC buprenorphine (0.02-0.05 mg/kg) administration. After inducing anesthesia, cryogels (4% total polymer concentration (w/v), 4×4×1 mm) were implanted via injection using a sterile 18-gauge needle.
The cryogels sterilized in 70% ethanol (v/v) for 20 minutes and under UV light. Cryogels were loaded into sterile syringes and sterile 18G needles. […] After 21 days post-implantation, animals were euthanized and the cryogels were retrieved along with the surrounding tissues for histological assessment, and placed in cold DPBS. Hydrogels used for biodegradation studies were thoroughly washed in distilled water, and excess tissue was carefully removed under a dissection microscope.
After explantation, samples were fixed in paraformaldehyde (4% v/v)) for 4 h, followed by overnight incubation in 30% sucrose (30% w/v) at 4° C. Samples were then embedded in OCT and flash frozen in liquid nitrogen. Frozen samples were sectioned using a Leica Biosystems CM3050 S Research Cryostat. 14-μm cryosections were obtained and mounted in positively charged slides using DPX mountant medium (Sigma). Slides were then processed for hematoxylin and eosin staining (Sigma) according to instructions from the manufacturer. Immunohistofluorescent staining was performed on mounted cryosections as previously reported.^15 Anti-CD3 [SP7] (ab16669), anti-CD206 (ab125212), anti-F480 were used as primary antibodies, and an Alexa Fluor 594-conjugated secondary antibody (Invitrogen) was used for detection. All sections were counterstained with DAPI (Invitrogen), and visualized on an AxioObserver Z1 inverted microscope.
In vivo injectability, bioadhesion, and immunohistology. Lastly, we characterized the in vivo biodegradation of HAGM and HPD cryogels, including their interactions with native tissues via subcutaneous implantation in a murine animal model. Sterile composite cryogels (HAGM and HPD, 4×4×1 mm) were suspended in 0.2 mL of PBS and were injected subcutaneously in the backs of C57BL/6J mice. After 21 days post-implantation, the mice were euthanized prior to cryogel retrieval, along with adjacent tissue. […] Explanted samples were then flash-frozen at an optimal cutting temperature (OCT) compound, cryosectioned into 14-μm slices, and mounted onto glass slides for histological examination.

Question: For hyaluronic acid methacrylate [HAGM], which “H&E staining, cell migration into explanted cryogels” value (in vivo) is on record?
Answer: migration of predominantly non-inflammatory cells

Question: What about the “lymphocyte/leukocyte infiltration (CD3)” value (in vivo) of the same substance?
Answer: no significant local lymphocyte infiltration

Question: What about the “macrophage infiltration (CD206 and F480)” value (in vivo) of the same substance?
Answer: some macrophages

Question: And the “tissue integration and immunocytotoxicity” value (in vivo, sc)?
Answer: high tissue integration with no immunocytoxicity

Question: And the “in vivo biodegradation (visual inspection)” value (sc)?
Answer: no biodegradation
